Results published in patent EP4491627A1, “SYNTHETIC CA[…] ON CHROMENO[…] AND USE THEREOF” (Consejo Superior De Investigaciones Científicas, priority 2023, dated 2025).

Test system: primary neuronal cultures
Experiment: cAMP assay in primary neuronal cultures
Type: cell-based, Sprague Dawley rats
Details: primary cultures of cortical neurons; Figure 5
Experimental: • Fig. 1. Graphics of the dose-response corresponding to the HTFR (Homogeneous Time Resolved Fluorescence) assays performed with chromenopyrimidines Example 1, Example 2 and Example 3. A) Competition assay snap-CB1; red ligand used at 100 nM; B) Competition assay snap-CB2; red ligand used at 20 nM. • Fig. 2. cAMP (Cyclic adenosine monophosphate) experiments performed with novel chromenopyrimidines (Example 1, Example 2 and Example 3). A) In HEK293 cells transfected with CB1; B) In HEK293 cells transfected with CB2. • Fig. 3. Graphics of the dose-response corresponding to the MAPK (mitogen-activated protein kinase) experiments performed with novel chromenopyrimidines (Example 1, Example 2 and Example 3). A) In HEK293 cells transfected with CB1; B) In HEK293 cells transfected with CB2. • Fig. 4. Graphics of the dose-response corresponding to the β-arrestin2 recruitment assays performed with Example 1, Example 2 and Example 3. A) In HEK293 cells transfected with CB1; B) In HEK293 cells transfected with CB2. • Fig. 5. Graphics of the dose-response corresponding to the cAMP assays performed with Example 1, Example 2 and Example 3 in neurons. • Fig. 6. Graphics of the dose-response of reference cannabinoids ACEA and anandamide in cAMP and MAPK assays in HEK293-CB1 cells. • Fig. 7. […]
In the present invention, cannabinoid affinity was evaluated using Homogeneous Time Resolved Fluorescence (HTFR) binding assays. Cannabinoid activity was assessed using an array of functional assays including cAMP, MAPK and barrestin2 recruitment in CB1 and CB2 transfected HEK293 cells. […]
Two hours before initiating the experiment, HEK-293T cells medium was replaced by serum-starved DMEM medium. […] Readings were performed after 60 min incubation at 25°. Homogeneous time-resolved fluorescence energy transfer (HTRF) measures were performed using the Lance Ultra cAMP kit (PerkinElmer, Waltham, MA, USA). Fluorescence at 665 nm was analysed on a PHERAstar Flagship microplate reader equipped with an HTRF optical module (BMG Lab technologies, Offenburg, Germany). […]

Row | SMILES | cannabinoid agonistic activity in primary neuronal cultures using cAMP assays
1 | CCCCCCC(C)(C)c1cc(O)c2c(c1)OC(C)(C)c1cncnc1-2 [Example 1, 8-(1,1-Dimethylheptyl)-5,5-dimethylchromeno[4,3-d]pyrimidin-10-ol] | cannabinoid agonistic activity
2 | CCCCCCC(C)(C)c1cc(OC)c2c(c1)OC(C)(C)c1cncnc1-2 [Example 2, 8-(1,1-Dimethylheptyl)-10-methoxy-5,5-dimethylchromeno[4,3-d]pyrimidine] | cannabinoid agonistic activity
3 | CCCCCCC(C)(C)c1cc(OCc2ccccc2)c2c(c1)OC(C)(C)c1cncnc1-2 [Example 3, 10-Benzyloxy-8-(1,1-dimethylheptyl)-5,5-dimethylchromeno[4,3-d]pyrimidine] | cannabinoid agonistic activity
